Literature values, collected in US20110086070A1, “Orally disintegrating compositions of rhein or diacerein” (priority 2008, published 2011).
Counter-ions that a name gives are not always drawn.

Legend:
[1] = oral route

| solubility in water (water, disclosed in EP 243,968) | solubility in solvents (solvents such as water, alcohols, acetone, dichloromethane and chloroform) | absorption by the digestive tract [1] | Structure (SMILES) |
| --- | --- | --- | --- |
| water-soluble |  |  | CC(=O)Oc1cccc2c1C(=O)c1c(OC(C)=O)cc(C(=O)O)cc1C2=O [potassium salt of diacerein] |
|  | practically insoluble | cannot be completely absorbed | CC(=O)Oc1cccc2c1C(=O)c1c(OC(C)=O)cc(C(=O)O)cc1C2=O [Diacerein, 4,5-bis(acetyloxy)9,10-dihydro-4,5-dihydroxy-9,10-dioxo-2-anthracenecarboxylic acid] |
